Results as given in patent publication US10323019B2, “Pyrazolylaminobenzimidazole derivatives as JAK inhibitors” (Eli Lilly and Company, priority 2016, dated 2019).
Where two headings read alike, the source gives them in different places.

Experiments:
[1] = target: JAK1 (Rattus norvegicus, UniProt G3V9W2); test: Rat PK/PD assay: rat whole blood ex vivo JAK1 activity (pSTAT3); assay type: in vivo; conditions: 30 mpk oral
Procedure: (§1) Male Wistar rats, 265-285 grams (Charles River) were used for oral gavage dosing. Dose the animals (Oral gavage) at 1.82 mL/kg (0.5 mL per 275 grams). Formulate the compounds in 1% HEC vehicle containing 0.25% Tween 80 and 0.05% antifoam with 1.1 molar equivalent of methanesulfonic acid to form an in situ salt. Formulate compounds once per week, and store at 4° C. At various time points, obtain rat whole blood via tail vain bleeding in Multivette 600 μl EDTA blood collection tubes (cat#151671100PK100, Sarstedt Inc) and use for ex vivo JAK1 and JAK2 assay. Aliquot 100 ul of blood from each rat into a 96-well round bottom plate. Stimulate whole blood by recombinant IL-6 ([…], and recombinant mouse GM-CSF (cat#415-ML, lot#, R&D) for 12 min at rt. After cytokine stimulation, add whole blood into Lyse/fix (cat#558049, lot#, BD) in minitube rack; mix well 5×. Incubate 10 min at rt. Spin minitube rack at 600 g for 4 min. Aspirate with 12-channel manifold. Transfer contents of minitube rack to 96 well round-bottom plates. Spin down the cells at 3000 rpm for 1 min and discard the supernatant. Mix the cells in the well with 100 ul ice-cold MeOH and incubated on ice for 30 min. Add 150 ul PBS+2% FCS into each well and spin down at 3000 rpm, 2 min. Wash cells with 2× of 250 ul PBS+2% FCS. For cell surface and intracellular staining, mix all antibodies and add into each well and incubate 1 hr at rt in dark. The antibodies used for staining are as following: pSTAT3, Alexa Fluor 647 (cat#4324s, lot, Cell Signaling); pSTAT5, Alexa Fluor 488 (cat#3939s, lot#, Cell Signaling), anti-rat CD4, V450 (cat#561579, lot#. BD); anti-rat CD11b, Percp eFluor710 (cat#12-0110-82, lot#, eBioscience) After staining cells with Abs, wash the plates twice with PBS+2% FCS and finally re-suspend in the same 150 ul of solution. Assess cell viability by Viability Dye 780 (cat#65-0865-14, lot#, eBioscience). Perform the cytometry assay using FORTESSA.

[2] = target: JAK2 (Rattus norvegicus (Rat), UniProt Q62689); test: Rat PK/PD assay: rat whole blood ex vivo JAK2 activity (pSTAT5); assay type: in vivo; conditions: 30 mpk oral
Procedure: as §1

[3] = tested on: paw swelling in Lewis rats; test: Rat collagen-induced arthritis (CIA) model; assay type: in vivo
Procedure: Rat Collagen-Induced Arthritis (CIA) Model
This protocol uses Lewis rats (weight 150-175 grams) from Charles River. On day 0, anesthetize rats with Isoflurane. On day 1, immunize intradermally with collagen emulsion in two sites on the lower lumbar region, above the base of the tail. Dose volume is a minimum of 0.4 mL per injection site. On day 8, anesthetize rats with Isoflurane and immunize intradermally with collagen emulsion in two sites on the lower lumbar region, above the base of the tail. Enroll rats into treatment groups on day 12, based on inflammation (redness and/or swelling) in their hind paws. Randomize animals for Treatment Phase based on ankle measurement values and body weight using block randomization allocation tool. Record ankle swelling on days 1, 8, and 11 and then three times per week following enrollment up to and including the day of necropsy. Dose compounds orally once a day starting on day 12 (after randomization) up to day 25. The compounds of Examples 6 and 7 were evaluated in the protocol essentially as described above.

[4] = target: JAK3 (Homo sapiens (Human), UniProt P52333); test: JAK LanthaScreen Kinase Assay (TR-FRET), JAK3 in vitro enzyme assay; assay type: biochemical; conditions: 20.0 μM ATP
Procedure: (§2) The JAK LanthaScreen™ Kinase Assay (Invitrogen) is used to determine the ability of test compounds to inhibit JAK1, JAK2, and JAK3 kinase activity. These are TR-FRET assay formats that use long-lifetime terbium labeled antibody as the donor species and GFP-STAT1 as the acceptor species. Use the TR-FRET ratio to monitor JAK kinase activity where an increase in phosphorylation of the GFP-STAT1 results in an increase in the TR-FRET ratio. Perform the kinase reaction using a 12.5 μl reaction volume in shallow black 384-well Proxiplate®. Add reagents to obtain final reaction conditions of […], 1.76 mM Triton X-100, ATP (20.0 μM for JAK1 and JAK3 or 5 μM for JAK2) enzyme assays, 10.0 mM MgCl2, 1 mM EGTA and 0.01% Brij-35, […] GFP-STAT1, 14 nM JAK1 enzyme for JAK1, 1.0 nM for JAK2 or 2.5 nM for JAK3 enzyme assays, and 4% DMSO and serial dilutions of test compound (diluted 1:3 from 20,000 to 1 nM). Following ATP/GFP-STAT1 addition, centrifuge the assay plates for 1 minute at 1000 revolutions per minute (RPM). Allow the plates to incubate at RT for 60 minutes and then add 12.5 μl of a stopping buffer containing 20 mM EDTA, 2 nM Terbium-anti-phosphorylated Signal Transducers and Activators of Transcription [phosphorylation Tyrosine 701 amino acid] […] Use ACTIVITYBASE® 4.0 to fit the percent inhibition and ten-point compound concentration data to a four-parameter logistic equation.

[5] = target: T1, JAK1 (Homo sapiens (Human), UniProt P23458); test: JAK LanthaScreen Kinase Assay (TR-FRET), JAK1 in vitro enzyme assay; assay type: biochemical; conditions: 20.0 μM ATP
Procedure: as §2

[6] = target: T1, JAK1; test: Human whole blood assay: pSTAT3 (JAK1) in lymphocytes, IL6 stimulated; assay type: cell-based; conditions: IL6, pSTAT3 in CD4+ lymphocytes
Source text: (§3) Human Whole Blood Assays: Determination of pSTAT3 (JAK1) and pSTAT5 (JAK2) in Lymphocytes and Monocytes
(§4) Human whole blood (HWB) assays were developed and validated to determine the JAK1 and JAK2 selectivity of test compounds.
(§5) Dilute the test compounds, 10 points, (1:3) in DMSO 100% and a step down in PBS+0.1% BSA. Use Tofacitinib as a reference compound in each plate, as well as a maximum signal (stimulated wells) and a minimum signal (no stimulated wells) in order to normalize data. Obtain a pool of HWB from 4 different healthy donors. Plate the blood in a 96 well plate using a Tecan Evo 96w and incubate with test compounds for 1 h at RT. After this time of incubation, stimulate HWB with both IL6 (206-IL, R&D System) and GM-CSF (PHC2015, Life Technologies) for 15 more minutes. Add a viability dye (65-0865, eBiosicience) (1:1000) using a Tecan Evo 96w (5×mix).
(§6) The final concentrations in the assay are the following: 100 (μM for compounds, 50 μM for Tofacitinib, 0.1 μg/mL IL6, 0.038 μg/mL GM-CSF and 1% DMSO. Lyse and fix HWB using a Lyse/fix buffer (558049, Becton Dickinson) by adding 900 μL of lysis buffer using Tecan Evo 96w (mix 10× high speed). Incubate HWB in bath at 37° C. for 10 minutes. Centrifuge HWB at 500 G, 8 min and discard supernatant. Add cold MeOH using a Tecan Exo 96w in order to permeabilize cells. Incubate blood cells on ice during 30 min. After this, wash cells 2× using Staining buffer (554656, Becton Dickinson), spin at 3000 rpm, 2 min. discard supernatant, and add the following antibodies: Anti-Human CD4 PE, 1:100 (12-0048, eBioscience), Anti-Human CD33 eFluor® 450, 1:50 (48-0337, eBioscience), Phospho-STAT5 (Tyr694) (C71E5) Rabbit mAb, 1:100 (Alexa Fluor® 488 Conjugate) (3939, Cell Signaling) and Phospho-STAT3 (Tyr705) (D3A7) XP™ Rabbit mAb 1:200, (Alexa Fluor® 647 Conjugate) (4324, Cell Signaling). Incubate the antibodies for 1 h in dark at RT, then wash cells 2× and read on Cytometer Macsquant (Miltenyi Biotec). Gate the data on CD4+ (lymphocytes) and CD4Low CD33Hi (monocytes), to measure the fluorescence intensity from cells expressing pSTAT3 and pSTAT5, respectively. Analyze the data using FlowJo v 10 and then normalize the median of fluorescence versus maximum and minimum signal to determine the IC50s. Use Graph Pad Prism 5™ to represent the dose response curves.

[7] = target: T2, JAK2 (Homo sapiens (Human), UniProt O60674); test: Human whole blood assay: pSTAT5 (JAK2) in monocytes, GM-CSF stimulated; assay type: cell-based; conditions: pSTAT5 in CD4Low CD33Hi monocytes
Source text: as §3, §4, §5, §6

[8] = target: T2, JAK2; test: JAK LanthaScreen Kinase Assay (TR-FRET), JAK2 in vitro enzyme assay; assay type: biochemical; conditions: 5 μM ATP
Procedure: as §2

[9] = tested on: paw swelling and bone mineral density loss in Lewis rats; test: Rat adjuvant-induced arthritis (AIA) model; assay type: in vivo; conditions: naïve rat as 100% inhibition
Procedure: Rat Adjuvant-Induced Arthritis (AIA) Model
The effects of compounds on polyarthritis inflammation and ankle joint bone erosion can be evaluated in a rat adjuvant-induced arthritis (AIA) model. Use Male Lewis rats with a mean body weight of 185 g for the study. Induce arthritis by intra-dermal injection located at the base of the tail with 100 μL of adjuvant suspended immunization emulsion oil. Randomize animals based on the mean paw thickness and body weight on day 10 into study groups with 8 rats in each group. Prepare compounds in 1% HEC/0.25% P80/0.05% AF in purified water and dose daily via oral gavage starting from day 11 post immunization for 14 days. Quantitate paw thickness with the caliper measurement on both ankles. Assess group differences using a one-way ANOVA followed by Dunnett's post-test for multiple comparisons against vehicle controls. The compound of Example 10 are evaluated in the protocol essentially as described above.

T1 sequence (P23458 whole entry): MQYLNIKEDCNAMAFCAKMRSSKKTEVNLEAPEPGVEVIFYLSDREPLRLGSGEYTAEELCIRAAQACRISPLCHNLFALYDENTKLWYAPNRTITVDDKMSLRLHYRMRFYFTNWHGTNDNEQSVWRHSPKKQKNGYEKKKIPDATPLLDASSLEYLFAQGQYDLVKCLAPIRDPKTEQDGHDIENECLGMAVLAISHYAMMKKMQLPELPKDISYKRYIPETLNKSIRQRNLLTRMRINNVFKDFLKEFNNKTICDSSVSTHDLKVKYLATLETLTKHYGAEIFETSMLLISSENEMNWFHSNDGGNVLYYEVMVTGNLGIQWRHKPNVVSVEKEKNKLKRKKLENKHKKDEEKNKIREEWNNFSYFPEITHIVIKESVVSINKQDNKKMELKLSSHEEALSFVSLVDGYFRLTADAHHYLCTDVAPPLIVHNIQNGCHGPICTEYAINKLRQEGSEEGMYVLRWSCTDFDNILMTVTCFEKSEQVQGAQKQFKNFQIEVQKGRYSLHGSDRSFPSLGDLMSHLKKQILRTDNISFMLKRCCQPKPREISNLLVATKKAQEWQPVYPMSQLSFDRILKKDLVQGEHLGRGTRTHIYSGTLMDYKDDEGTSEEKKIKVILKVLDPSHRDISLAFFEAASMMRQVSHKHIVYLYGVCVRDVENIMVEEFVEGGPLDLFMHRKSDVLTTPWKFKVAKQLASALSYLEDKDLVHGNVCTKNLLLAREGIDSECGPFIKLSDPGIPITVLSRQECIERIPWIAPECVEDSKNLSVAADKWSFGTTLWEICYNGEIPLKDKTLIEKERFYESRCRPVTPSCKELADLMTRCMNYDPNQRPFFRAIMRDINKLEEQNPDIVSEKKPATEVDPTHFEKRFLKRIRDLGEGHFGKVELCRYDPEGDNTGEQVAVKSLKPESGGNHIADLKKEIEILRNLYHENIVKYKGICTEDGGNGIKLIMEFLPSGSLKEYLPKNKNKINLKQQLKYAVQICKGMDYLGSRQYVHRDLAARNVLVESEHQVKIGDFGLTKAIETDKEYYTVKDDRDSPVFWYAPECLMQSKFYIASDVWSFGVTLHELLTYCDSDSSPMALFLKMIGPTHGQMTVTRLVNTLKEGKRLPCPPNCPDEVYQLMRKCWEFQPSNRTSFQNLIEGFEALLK
Chain of JAK1 (Rattus norvegicus, UniProt G3V9W2) (G3V9W2 1-1153): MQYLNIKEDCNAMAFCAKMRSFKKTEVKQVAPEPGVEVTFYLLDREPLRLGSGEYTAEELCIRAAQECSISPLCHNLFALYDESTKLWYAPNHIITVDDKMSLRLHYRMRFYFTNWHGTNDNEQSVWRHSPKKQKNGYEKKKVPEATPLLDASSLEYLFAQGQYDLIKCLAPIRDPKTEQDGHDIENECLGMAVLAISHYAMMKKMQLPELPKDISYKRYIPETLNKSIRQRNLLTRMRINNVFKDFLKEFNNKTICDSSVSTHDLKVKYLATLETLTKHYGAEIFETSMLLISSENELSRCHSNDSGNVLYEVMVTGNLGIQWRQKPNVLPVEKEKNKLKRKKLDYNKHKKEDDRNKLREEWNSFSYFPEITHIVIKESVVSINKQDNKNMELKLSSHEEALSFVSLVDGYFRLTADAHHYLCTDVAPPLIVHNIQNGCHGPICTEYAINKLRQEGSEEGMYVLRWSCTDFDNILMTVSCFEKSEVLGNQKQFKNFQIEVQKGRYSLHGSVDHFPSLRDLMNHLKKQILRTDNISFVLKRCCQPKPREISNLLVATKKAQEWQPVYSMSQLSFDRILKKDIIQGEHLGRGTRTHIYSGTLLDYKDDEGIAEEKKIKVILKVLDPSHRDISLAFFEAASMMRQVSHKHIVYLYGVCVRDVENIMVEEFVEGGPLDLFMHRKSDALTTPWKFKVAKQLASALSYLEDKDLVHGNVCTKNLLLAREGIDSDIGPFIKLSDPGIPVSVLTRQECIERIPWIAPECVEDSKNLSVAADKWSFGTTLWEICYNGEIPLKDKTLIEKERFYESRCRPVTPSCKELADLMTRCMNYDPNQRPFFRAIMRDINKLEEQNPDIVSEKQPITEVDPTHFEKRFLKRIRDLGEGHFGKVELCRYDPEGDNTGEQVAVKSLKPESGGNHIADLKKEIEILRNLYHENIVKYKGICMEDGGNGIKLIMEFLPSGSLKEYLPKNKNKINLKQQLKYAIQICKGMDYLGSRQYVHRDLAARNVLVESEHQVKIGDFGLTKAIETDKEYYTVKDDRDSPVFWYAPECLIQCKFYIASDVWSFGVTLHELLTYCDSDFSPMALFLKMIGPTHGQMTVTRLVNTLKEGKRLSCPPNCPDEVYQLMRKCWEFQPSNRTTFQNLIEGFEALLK
T2 sequence (O60674 whole entry): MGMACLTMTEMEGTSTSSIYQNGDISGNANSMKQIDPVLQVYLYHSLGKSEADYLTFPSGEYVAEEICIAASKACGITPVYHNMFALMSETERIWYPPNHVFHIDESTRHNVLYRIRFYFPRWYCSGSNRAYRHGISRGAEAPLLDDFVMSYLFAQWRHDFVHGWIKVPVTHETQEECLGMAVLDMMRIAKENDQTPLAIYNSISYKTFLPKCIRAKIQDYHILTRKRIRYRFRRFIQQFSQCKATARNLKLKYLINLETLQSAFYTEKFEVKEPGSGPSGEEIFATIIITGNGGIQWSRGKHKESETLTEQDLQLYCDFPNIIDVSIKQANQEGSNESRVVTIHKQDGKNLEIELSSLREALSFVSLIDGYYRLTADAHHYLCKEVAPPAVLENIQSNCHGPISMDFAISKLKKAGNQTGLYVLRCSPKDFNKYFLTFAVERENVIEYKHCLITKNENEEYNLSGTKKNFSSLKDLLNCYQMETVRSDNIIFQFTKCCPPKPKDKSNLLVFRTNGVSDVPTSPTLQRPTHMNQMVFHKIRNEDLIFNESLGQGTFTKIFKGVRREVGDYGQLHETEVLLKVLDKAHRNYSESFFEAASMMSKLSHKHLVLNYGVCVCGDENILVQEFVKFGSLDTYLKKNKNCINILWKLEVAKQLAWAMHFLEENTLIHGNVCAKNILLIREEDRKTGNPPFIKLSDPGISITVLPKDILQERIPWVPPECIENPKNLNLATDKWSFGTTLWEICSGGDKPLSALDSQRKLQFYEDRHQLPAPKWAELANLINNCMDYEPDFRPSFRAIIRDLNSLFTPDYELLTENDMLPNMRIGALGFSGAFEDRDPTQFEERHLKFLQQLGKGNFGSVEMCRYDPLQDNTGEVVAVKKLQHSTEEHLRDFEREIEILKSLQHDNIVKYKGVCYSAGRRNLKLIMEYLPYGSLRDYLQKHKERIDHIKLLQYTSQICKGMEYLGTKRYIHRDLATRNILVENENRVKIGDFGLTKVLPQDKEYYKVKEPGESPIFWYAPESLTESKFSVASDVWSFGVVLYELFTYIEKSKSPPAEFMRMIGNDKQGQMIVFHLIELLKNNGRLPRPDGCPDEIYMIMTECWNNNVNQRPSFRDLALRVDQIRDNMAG
Chain of JAK3 (P52333 whole entry): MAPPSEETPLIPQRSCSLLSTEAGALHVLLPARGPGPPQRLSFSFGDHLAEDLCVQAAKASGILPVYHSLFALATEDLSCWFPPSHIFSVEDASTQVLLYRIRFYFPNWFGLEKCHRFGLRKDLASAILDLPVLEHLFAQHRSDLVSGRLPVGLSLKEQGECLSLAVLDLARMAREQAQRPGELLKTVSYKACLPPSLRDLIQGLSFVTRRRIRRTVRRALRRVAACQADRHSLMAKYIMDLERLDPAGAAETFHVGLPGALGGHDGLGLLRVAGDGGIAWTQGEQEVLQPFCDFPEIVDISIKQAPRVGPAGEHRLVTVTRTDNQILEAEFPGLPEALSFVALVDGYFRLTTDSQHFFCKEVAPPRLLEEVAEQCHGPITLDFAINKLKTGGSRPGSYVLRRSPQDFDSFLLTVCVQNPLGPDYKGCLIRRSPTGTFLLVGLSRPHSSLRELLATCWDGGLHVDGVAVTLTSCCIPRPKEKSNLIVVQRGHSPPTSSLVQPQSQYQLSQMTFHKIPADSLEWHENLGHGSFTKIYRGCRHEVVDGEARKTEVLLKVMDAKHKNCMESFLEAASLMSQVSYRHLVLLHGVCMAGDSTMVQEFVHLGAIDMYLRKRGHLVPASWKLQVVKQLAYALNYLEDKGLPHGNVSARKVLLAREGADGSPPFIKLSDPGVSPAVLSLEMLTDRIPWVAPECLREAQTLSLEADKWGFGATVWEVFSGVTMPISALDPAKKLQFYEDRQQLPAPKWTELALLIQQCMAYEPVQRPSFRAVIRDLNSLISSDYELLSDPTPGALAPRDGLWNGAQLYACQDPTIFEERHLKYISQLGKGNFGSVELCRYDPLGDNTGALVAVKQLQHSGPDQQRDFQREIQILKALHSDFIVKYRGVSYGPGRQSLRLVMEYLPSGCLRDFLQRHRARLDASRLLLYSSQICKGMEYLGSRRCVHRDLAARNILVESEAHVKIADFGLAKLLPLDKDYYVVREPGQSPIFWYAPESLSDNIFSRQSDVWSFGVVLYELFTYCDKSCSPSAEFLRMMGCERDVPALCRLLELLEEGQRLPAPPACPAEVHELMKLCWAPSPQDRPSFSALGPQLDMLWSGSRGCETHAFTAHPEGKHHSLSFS

| Compound | IC50 [4] [nM] | IC50 [5] [nM] | IC50 [6] [nM] | IC50 [7] [nM] | IC50 [8] [nM] | also measured |
| --- | --- | --- | --- | --- | --- | --- |
| Cc1cc(Nc2cc(O[C@H]3CC[C@@H](NC[C@@H](O)C(F)(F)F)CC3)cc3c2ncn3C)nn1C[C@H](C)O [Example 4, (2R)-1,1,1-Trifluoro-3-[(cis-4-{[4-({1-[(2S)-2-hydroxypropyl]-5-methyl-1H-pyrazol-3-yl}amino)-1-methyl-1H-benzimidazol-6-yl]oxy}cyclohexyl)amino]propan-2-ol] | – | – | – | – | – | inhibition at 30 mg/kg ([1]; 2 hr post dosing, read-out: JAK1 inhibition 2 hr post dosing): 72%; inhibition at 30 mg/kg ([1]; 7 hr post dosing, read-out: JAK1 inhibition 7 hr post dosing): 22.3%; inhibition at 30 mg/kg ([2]; 2 hr post dosing, read-out: JAK2 inhibition 2 hr post dosing): 22.9%; inhibition at 30 mg/kg ([2]; 7 hr post dosing, read-out: JAK2 inhibition 7 hr post dosing): 20.1% |
| CCn1nc(Nc2cc(OC3CCC(NC[C@@H](O)C(F)(F)F)CC3)cc3c2ncn3C)cc1C (stereo in doubt) [Example 7] | 6160 ± 2020 | 5.43 ± 0.93 | 4170 ± 1870 | – | – | Rat paw swelling % inhibition at 3 mpk ([3]; 3 mpk oral once a day day 12 to 25, naïve rat as 100% inhibition): 0%; Rat paw swelling % inhibition at 10 mpk ([3]; 10 mpk oral once a day day 12 to 25, naïve rat as 100% inhibition): 69%; Rat paw swelling % inhibition at 30 mpk ([3]; 30 mpk oral once a day day 12 to 25, naïve rat as 100% inhibition): 73%; JAK1 inhibition 2 hr post dosing ([1]; 2 hr post dosing): 70.7%; JAK1 inhibition 7 hr post dosing ([1]; 7 hr post dosing): 61.0% |
| Cc1cc(Nc2cc(O[C@H]3CC[C@@H](NC[C@@H](O)C(F)F)CC3)cc3c2ncn3C)nn1C [Example 9, (2R)-3-{[cis-4-({4-[(1,5-Dimethyl-1H-pyrazol-3-yl)amino]-1-methyl-1H-benzimidazol-6-yl}oxy)cyclohexyl]amino}-1,1-difluoropropan-2-ol] | 2140 ± 720 | 5.35 ± 0.23 | 4530 ± 2090 | 16900 ± 4500 | 767 ± 39 | – |
| Cn1cnc2c(Nc3cc[nH]n3)cc(O[C@H]3CC[C@@](C)(NC[C@@H](O)C(F)(F)F)CC3)cc21 [Example 8, (2R)-1,1,1-Trifluoro-3-[(cis-1-methyl-4-{[1-methyl-4-(1H-pyrazol-3-ylamino)-1H-benzimidazol-6-yl]oxy}cyclohexyl)amino]propan-2-ol] | 1170 ± 470 | 1.91 ± 0.75 | 3130 ± 1100 | 9630 ± 2520 | 239 ± 150 | – |
| Cn1cnc2c(Nc3ccn(-c4ccccn4)n3)cc(O[C@H]3CC[C@@H](NC[C@@H](O)C(F)(F)F)CC3)cc21 [Example 10, (2R)-1,1,1-Trifluoro-3-({cis-4-[(1-methyl-4-{[1-(pyridin-2-yl)-1H-pyrazol-3-yl]amino}-1H-benzimidazol-6-yl)oxy]cyclohexyl}amino)propan-2-ol] | 660 ± 180 | 1.49 ± 0.49 | 1290 ± 640 | 6860 ± 2130 | 220 ± 120 | % inhibition of BMD loss in paw ([9]; 3 mpk oral daily for 14 days): 39%; % inhibition of paw swelling ([9]; 3 mpk oral daily for 14 days): 26%; % inhibition of BMD loss in paw ([9]; 10 mpk oral daily for 14 days): 81%; % inhibition of paw swelling ([9]; 10 mpk oral daily for 14 days): 63%; % inhibition of BMD loss in paw ([9]; 30 mpk oral daily for 14 days): 84%; % inhibition of paw swelling ([9]; 30 mpk oral daily for 14 days): 73% |
